Laboratory results from patent EP1658093B1, “USE OF A MIXTURE CONTAINING OXYTOCIN AND TESTOSTERON OR ESTRADIOL FOR TREATING DISTURBANCES OF PSYCHOSOCIAL EXPERIENCES AND BEHAVIOUR” (Beier, Klaus M., priority 2003, dated 2007).

How the values were obtained:
[1] = Double-blind study: psychophysiological reaction patterns (SMARD-Watch), dynamic cross-correlation analysis; format: in vivo; conditions: mean over all 4 Probanden; Oxytocin nasal 4 or 8 I.E.; sex hormone as dermal patch (Estradiol in men, Testosteron in women); low coefficient = balanced sympathetic/parasympathetic regulation
Procedure: (§1) Untersucht wurden 4 Probanden, zwei heterosexuelle Paare mit jeweils mehr als 20jähriger Partnerschaftsdauer. In einer Doppelblindstudie wurden Oxytocin gegen Placebo, die Kombinationen Oxytocin/Estradiol an Männern und Oxytocin/Testosteron an Frauen gegen Placebo und gegen den "Austausch von Intimität" untersucht.
(§2) Den Männern wurde Oxytocin nasal als Spraystoß (1 Spraystoß Syntocinon® = 4 I.E. Oxytocin) und Estradiol dermal als Membranpflaster(2 mg Estradiol mit der Freisetzungsrate von ca. […]; Estraderm TTS® 25) verabreicht.
(§3) Den Frauen wurde Oxytocin nasal als Spraystoß (1 Spraystoß Syntocinon® = 4 I.E. Oxytocin) und Testosteron dermal als Membranpflaster (12,2 mg Testosteron mit einer Freisetzungsrate von ca. 0,1 mg/h; Androderm® 2,5 mg) verabreicht.
(§4) Die Verabreichung von Oxytocin erfolgte nasal und doppelblind (Placebo und Verum) in zwei Dosierungen, 1 Sprühstoß = 4 I.E. Oxytocin und zwei Sprühstöße = 8 I.E. Oxytocin, jeweils fortlaufend im Abstand von einer Stunde. Oxytocin wurde sowohl vor als auch nach der Anlage des Membranpflasters verabreicht. Insgesamt wurden 4 nasale Interventionen vor und nach der zusätzlichen Sexualhormongabe durchgeführt, wobei das Verum 2 mal in unterschiedlichen Dosierungen gegeben wurde. Die ersten nasalen Interventionen erfolgten nach 2 Stunden Wirkzeit der Sexualhormone. […]

[2] = Double-blind study: subjective state descriptions by questionnaire; format: in vivo; conditions: 4 Probanden
Procedure: as §1, §2, §3, §4

Which results are given for Oxytocin?
Kreuzkorrelationskoeffizient [1]: 0,51; subjektive Zustandsbeschreibungen (Selbstwahrnehmung) [2]: stärker in Richtung Entspannung tendierte
